Laboratory results from EP3539977B1, “ENZYMES WITH CHLOROGENIC ACID ESTERASE ACTIVITY AND FERULOYL ESTERASE ACTIVITY” (SternEnzym GmbH & Co. KG, priority 2014, dated 2016).
“And” between values parts separate entries of the source, which are not always exact repeats. Equal entries are not always repeated.

Biological target: T1, UmChlE (Mycosarcoma maydis, UniProt A0A060S684, P492L)
T1 construct: purification of the chlorogenic acid esterase UmChlE from culture supernatant of U. maydis was accomplished by three complementary separation steps; made in house; host or cells: Ustilago maydis itself (native producer), culture supernatant; Q Sepharose FF, preparative IEF, polyamide column
Assay: Kinetic parameters of UmChlE from initial hydrolysis rates
Format: biochemical, Ustilago maydis
Conditions: 0.005 - 1 mM substrate, 60 min, 37 °C, pH 7.5
Method: Km and vmax values were calculated with non-linear regression using SigmaPlot 10.0 (Systat Software Inc., Chicago, USA). Blanks were carried out for all assays using water instead of enzyme. For calculation of kcat the molecular mass was determined using denaturing SDS-PAGE.
Kinetic properties were determined from initial hydrolysis rates for the most preferred substrates chlorogenic acid, MFA and MpCA. […] Consequently, the catalytic efficiency (kca/Km), a good indicator for enzyme efficiency and specificity, was better for chlorogenic acid than for the two synthetic substrates.

Structure (SMILES)	Km (listed as MpCA)	Km [µM]
COC(=O)/C=C/c1ccc(O)cc1 [methyl p-coumarate]	64.1 µM and 64 µM	–
O=C(/C=C/c1ccc(O)c(O)c1)O[C@@H]1C[C@](O)(C(=O)O)C[C@@H](O)[C@H]1O [chlorogenic acid]	–	19.6
COC(=O)/C=C/c1ccc(O)c(OC)c1 [methyl ferulate]	–	102
